Laboratory results reported in ChEMBL document CHEMBL1201862, “PubChem BioAssay data set” (2004).
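Five concentrations, 48 hours, 96-well plates. GI50 marks 50% less growth.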 Calls of active or inactive are those of the source. No stated cut-off is given here; in the data, active = GI50 up to about 1.1 µM and inactive = higher.

What was measured:
Assay in all cases: DTP human tumour cell line panel, 48 h
[1] = system: A498
[2] = system: HCT-116
[3] = system: SN12C
[4] = system: K562
[5] = system: HCC 2998
[6] = system: SW-620
[7] = system: SK-OV-3
[8] = system: KM12
[9] = system: UACC-257
[10] = system: SK-MEL-5
[11] = system: SK-MEL-28
[12] = system: OVCAR-8
[13] = system: SR
[14] = system: IGROV-1
[15] = system: DU-145
[16] = system: SF-539
[17] = system: MOLT-4
[18] = system: U-251
[19] = system: SF-268
[20] = system: MCF7
[21] = system: CAKI-1
[22] = system: CCRF-CEM
[23] = system: PC-3
[24] = system: SNB-19
[25] = system: HCT-15
[26] = system: HL-60
[27] = system: NCI-H23
[28] = system: SK-MEL-2
[29] = system: MDA-MB-435
[30] = system: OVCAR-4
[31] = system: OVCAR-5
[32] = system: NCI-H460
[33] = system: M14
[34] = system: RPMI-8226
[35] = system: EKVX
[36] = system: BT-549
[37] = system: 786-0
[38] = system: TK-10
[39] = system: NCI/ADR-RES
[40] = system: NCI-H522
[41] = system: Hs-578T
[42] = system: HOP-62
[43] = system: RXF 393
[44] = system: MDA-MB-231
[45] = system: ACHN
[46] = system: NCI-H226
[47] = system: UO-31
[48] = system: MDA-N
[49] = system: HOP-92
[50] = system: UACC-62
[51] = system: Malme-3M
[52] = system: HT-29
[53] = system: A549
[54] = system: LOX IMVI
[55] = system: SNB-75
[56] = system: OVCAR-3
[57] = system: SF-295
[58] = system: T47D
[59] = system: COLO 205

`CCOc1ccc(C2Oc3c(cccc3OC)C=C2[N+](=O)[O-])cc1OCC` (stereo not drawn) was tested, and the GI50 [1] was 9.57 µM (inactive), the GI50 [2] was 1.5 µM (inactive) and the GI50 [3] was 10.8 µM (inactive). The GI50 [4] was 1.87 µM (inactive), the GI50 [5] was 20.7 µM (inactive) and the GI50 [6] was 2.06 µM (inactive). For the same molecule, the GI50 [7] was 27.5 µM (inactive), the GI50 [8] was 5.43 µM (inactive) and the GI50 [9] was 3.66 µM (inactive). For the same molecule, the GI50 [10] was 4.8 µM (inactive), the GI50 [11] was 2.24 µM (inactive) and the GI50 [12] was 2 µM (inactive). The GI50 [13] was 1.62 µM (inactive), the GI50 [14] was 4.92 µM (inactive) and the GI50 [15] was 14.6 µM (inactive). For the same molecule, the GI50 [16] was 2.39 µM (inactive), the GI50 [17] was 4.22 µM (inactive) and the GI50 [18] was 6.49 µM (inactive). The GI50 [19] was 11.6 µM (inactive), the GI50 [20] was 3.52 µM (inactive) and the GI50 [21] was 2.94 µM (inactive). For the same molecule, the GI50 [22] was 1.35 µM (inactive), the GI50 [23] was 9.33 µM (inactive) and the GI50 [24] was 15.2 µM (inactive). For the same molecule, the GI50 [25] was 4.86 µM, the GI50 [26] was 2.14 µM (inactive) and the GI50 [27] was 6.67 µM (inactive). The GI50 [28] was 5.64 µM (inactive), the GI50 [29] was 2.82 µM (inactive) and the GI50 [30] was 10.9 µM (inactive). For the same molecule, the GI50 [31] was 9.59 µM (inactive), the GI50 [32] was 7.28 µM (inactive) and the GI50 [33] was 2.38 µM (inactive). The GI50 [34] was 2.27 µM (inactive), the GI50 [35] was 16.7 µM (inactive) and the GI50 [36] was 5.96 µM (inactive). For the same molecule, the GI50 [37] was 3.04 µM (inactive), the GI50 [38] was 15.5 µM (inactive) and the GI50 [39] was 3.15 µM (inactive). For the same molecule, the GI50 [40] was 1.84 µM (inactive), the GI50 [41] was 5.51 µM (inactive) and the GI50 [42] was 12.6 µM (inactive). For the same molecule, the GI50 [43] was 3 µM (inactive), the GI50 [44] was 2.73 µM (inactive) and the GI50 [45] was 3.71 µM (inactive). The GI50 [46] was 21.9 µM (inactive), the GI50 [47] was 2.64 µM (inactive) and the GI50 [48] was 2.04 µM (inactive). For the same molecule, the GI50 [49] was 12.6 µM (inactive), the GI50 [50] was 5.32 µM (inactive) and the GI50 [51] was 2.3 µM (inactive). For the same molecule, the GI50 [52] was 2.86 µM (inactive), the GI50 [53] was 17.3 µM (inactive) and the GI50 [54] was 1.97 µM (inactive). For the same molecule, the GI50 [55] was 13.8 µM (inactive), the GI50 [56] was 4.91 µM (inactive) and the GI50 [57] was 15.3 µM (inactive). For the same molecule, the GI50 [58] was 15.7 µM (inactive) and the GI50 [59] was 3.68 µM (inactive).
For `CC(C)SC1SCC2C(=O)N(C)C3(CC3C)C(=O)OCC(NC(=O)c3nc4ccccc4cc3O)C(=O)NC(C)C(=O)N(C)C1C(=O)N(C)C1(CC1C)C(=O)OCC(NC(=O)c1nc3ccccc3cc1O)C(=O)NC(C)C(=O)N2C` (stereo not drawn), the GI50 [1] was < 0.0001 µM (active), the GI50 [2] was < 0.0001 µM (active) and the GI50 [3] was < 0.0001 µM (active). The GI50 [4] was < 0.0001 µM (active), the GI50 [5] was < 0.0001 µM (active) and the GI50 [6] was < 0.0001 µM (active). The GI50 [7] was < 0.0001 µM (active), the GI50 [8] was < 0.0001 µM (active) and the GI50 [9] was < 0.0001 µM (active). For the same molecule, the GI50 [10] was < 0.0001 µM (active), the GI50 [11] was < 0.0001 µM (active) and the GI50 [12] was < 0.0001 µM (active). For the same molecule, the GI50 [13] was < 0.0001 µM (active), the GI50 [14] was < 0.0001 µM (active) and the GI50 [15] was < 0.0001 µM (active). For the same molecule, the GI50 [16] was < 0.0001 µM (active), the GI50 [17] was < 0.0001 µM (active) and the GI50 [18] was < 0.0001 µM (active). The GI50 [19] was < 0.0001 µM (active), the GI50 [20] was < 0.0001 µM (active) and the GI50 [21] was < 0.0001 µM (active). For the same molecule, the GI50 [22] was < 0.0001 µM (active), the GI50 [23] was < 0.0001 µM (active) and the GI50 [24] was < 0.0001 µM (active). The GI50 [25] was under 0.0001 µM, the GI50 [26] was < 0.0001 µM (active) and the GI50 [27] was < 0.0001 µM (active). For the same molecule, the GI50 [28] was < 0.0001 µM (active), the GI50 [29] was < 0.0001 µM (active) and the GI50 [30] was < 0.0001 µM (active). The GI50 [31] was < 0.0001 µM (active), the GI50 [32] was < 0.0001 µM (active) and the GI50 [33] was < 0.0001 µM (active). The GI50 [34] was < 0.0001 µM (active), the GI50 [35] was 0.00298 µM (active) and the GI50 [36] was 0.01 µM (active). The GI50 [37] was < 0.0001 µM (active), the GI50 [38] was < 0.0001 µM (active) and the GI50 [39] was 0.00446 µM (active). The GI50 [40] was < 0.0001 µM (active), the GI50 [41] was < 0.0001 µM (active) and the GI50 [42] was < 0.0001 µM (active). The GI50 [43] was < 0.0001 µM (active), the GI50 [44] was < 0.0001 µM (active) and the GI50 [45] was < 0.0001 µM (active). For the same molecule, the GI50 [46] was < 0.0001 µM (active), the GI50 [47] was < 0.0001 µM (active) and the GI50 [48] was < 0.0001 µM (active). For the same molecule, the GI50 [49] was < 0.0001 µM (active), the GI50 [50] was < 0.0001 µM (active) and the GI50 [51] was < 0.0001 µM (active). The GI50 [52] was < 0.0001 µM (active), the GI50 [53] was < 0.0001 µM (active) and the GI50 [54] was < 0.0001 µM (active). For the same molecule, the GI50 [55] was < 0.0001 µM (active), the GI50 [56] was < 0.0001 µM (active) and the GI50 [57] was < 0.0001 µM (active). For the same molecule, the GI50 [58] was < 0.0001 µM (active) and the GI50 [59] was < 0.0001 µM (active).
